Laboratory results published in publication PMC11460631, “Inhibition of transient receptor potential vanilloid 3 channels by antimalarial hydroxychloroquine alleviates TRPV3-dependent dermatitis” (The Journal of Biological Chemistry, 2024).
Numbering of substitutions follows the chain as printed.

Key:
[1] = molecular target: T1, TRPV3 Y594 alanine mutation (Homo sapiens, UniProt Q8NET8, Y594A); assay: Whole-cell recording of TRPV3 Y594 alanine mutant; type: cell-based; conditions: 1 mM 2-APB, ± 80 mV
T1 construct: YFP or GFP; expressed in transfected cells; host or cells: HEK293T
T1 sequence (Q8NET8 1-790 Y594A): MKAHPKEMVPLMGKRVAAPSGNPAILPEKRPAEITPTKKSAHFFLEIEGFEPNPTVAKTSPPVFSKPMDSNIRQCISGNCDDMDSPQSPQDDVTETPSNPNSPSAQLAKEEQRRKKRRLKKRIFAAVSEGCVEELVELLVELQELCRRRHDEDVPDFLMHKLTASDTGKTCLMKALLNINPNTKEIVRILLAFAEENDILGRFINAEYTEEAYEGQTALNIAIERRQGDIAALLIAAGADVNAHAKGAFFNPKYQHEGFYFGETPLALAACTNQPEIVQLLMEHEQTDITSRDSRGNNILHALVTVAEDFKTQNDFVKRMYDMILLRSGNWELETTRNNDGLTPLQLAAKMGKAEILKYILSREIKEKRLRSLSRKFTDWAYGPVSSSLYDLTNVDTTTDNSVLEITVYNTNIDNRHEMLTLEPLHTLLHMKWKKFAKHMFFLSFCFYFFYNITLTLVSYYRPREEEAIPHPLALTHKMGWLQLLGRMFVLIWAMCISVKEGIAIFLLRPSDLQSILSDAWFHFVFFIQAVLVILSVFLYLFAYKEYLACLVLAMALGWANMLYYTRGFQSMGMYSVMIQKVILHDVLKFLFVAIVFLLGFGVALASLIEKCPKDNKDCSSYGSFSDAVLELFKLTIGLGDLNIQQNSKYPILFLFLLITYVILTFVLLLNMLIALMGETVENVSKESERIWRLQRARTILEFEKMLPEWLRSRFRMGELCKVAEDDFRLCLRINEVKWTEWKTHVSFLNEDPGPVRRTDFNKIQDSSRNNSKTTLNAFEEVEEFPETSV
Description: (§1) As we mentioned above, HCQ may act as a pore blocker of TRPV3. To probe the binding configuration of HCQ to TRPV3, we carried out molecular docking using Rosetta suite (https://rosettacommons.org) ([21]) and validated the docking models with point mutations in TRPV3 (Fig. 4A). […] Furthermore, when we introduced L670A to L591A mutant, we also observed a left shift on the concentration–response curve on this double mutant as compared to L591A mutant (Fig. 4H).
(§2) Figure 4 Residues of the pore domain are critical for HCQ inhibition on TRPV3.A, left panel, docking model of HCQ to the pore domain of TRPV3 structure (6uw4). Right panels, top view and side view of the HCQ-binding pocket. B-J, representative whole-cell recording of TRPV3 and mutants in response to 1 mM 2-APB, the mixture of 1 mM 2-APB and concentration gradients of HCQ with the holding potential of ± 80 mV. K, concentration–response curves of HCQ in WT TRPV3 and mutants (n = 3–5 cells). L, quantification of the inhibitory ratio of HCQ (100 μM) on WT, L591A, and N671Q. […]
(§3) All data from whole-cell recordings were analyzed in Igor Pro (WaveMetrics). IC50 values were determined by fitting the Hill equation to concentration-response relationships. […]

[2] = molecular target: T2, TRPV3 I637 alanine mutation (Homo sapiens, UniProt Q8NET8, I637A); assay: Whole-cell recording of TRPV3 I637 alanine mutant; type: cell-based; conditions: 1 mM 2-APB, ± 80 mV
T2 construct: YFP or GFP; expressed in transfected cells; host or cells: HEK293T
T2 sequence (Q8NET8 1-790 I637A): T1 sequence (Q8NET8 1-790 Y594A) with A594Y, I637A
Description: as §1, §2, §3

- IC50 [1]: 1570 ± 80 nM
- IC50 [2]: 140 ± 20 nM
SMILES: CCN(CCO)CCCC(C)Nc1ccnc2cc(Cl)ccc12 (centres unmarked) [HCQ, hydroxychloroquine]
